Some test systems named below: HL-60(TB) leukemia; EKVX NSCLC; UACC-62 melanoma; A549 NSCLC; K-562 leukemia; HOP-92 NSCLC; TK-10 renal; RXF 393 renal; HOP-62 NSCLC; NCI-H460 lung; NCI-H23 lung; OVCAR-5 ovarian; SW-620 colon; A498 renal; OVCAR-8 ovarian; SNB-19 CNS.
Common to all, as to test: NCI-60 cell line screen, 48 h

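Protocol summary: plate cells (96-well), add compound at 5 concentrations, incubate 48 h, interpolate endpoints linearly. TGI marks complete inhibition of growth.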 A value given as a limit tells only on which side of the number the result lay.

Consider `COc1c(C)c2c(c3c1c(=O)c1ccccc1n3C)C=CC(C)(C)O2`, for which the TGI in the assay with HL-60(TB) leukemia was 30.2 µM; with EKVX NSCLC, greater than 100 µM; with UACC-62 melanoma, 33.4 µM; in the assay with A549 NSCLC, 26.7 µM; in the assay with K-562 leukemia, 66 µM; in the assay with HOP-92 NSCLC, 88.8 µM. Further, the TGI in the assay with TK-10 renal is greater than 100 µM; in the assay on RXF 393 renal, greater than 100 µM; in the assay on HOP-62 NSCLC, 85.8 µM; with NCI-H460 lung, 62 µM; in the assay with NCI-H23 lung, greater than 100 µM; in the assay on OVCAR-5 ovarian, 87.6 µM. In addition, the TGI in the assay on SW-620 colon is greater than 100 µM; with A498 renal it was 73.4 µM; with OVCAR-8 ovarian, 91.5 µM; in the assay with SNB-19 CNS, greater than 100 µM.
For `O=C(CSc1nnc(Cc2ccccc2)o1)Nc1cccc(Cl)c1`, the TGI in the assay with HL-60(TB) leukemia, in the assay with EKVX NSCLC, in the assay on A549 NSCLC, with K-562 leukemia, in the assay with TK-10 renal and in the assay with RXF 393 renal was greater than 100 µM each time. Also, the TGI with HOP-62 NSCLC, in the assay on NCI-H460 lung, with NCI-H23 lung, in the assay on OVCAR-5 ovarian, with SW-620 colon and with A498 renal was greater than 100 µM in each case. Besides, the TGI with OVCAR-8 ovarian and with SNB-19 CNS was greater than 100 µM throughout.
On to `CC(C)C1C(=O)NC(CO)Cc2c[nH]c3c(C(c4c[nH]c5ccccc45)C(O)CO)ccc(c23)N1C` (configuration not stated), for which the TGI in the assay with HL-60(TB) leukemia, with EKVX NSCLC, in the assay on UACC-62 melanoma, in the assay with A549 NSCLC, in the assay with K-562 leukemia and with HOP-92 NSCLC was greater than 100 µM each time. In addition, the TGI in the assay on TK-10 renal, in the assay with RXF 393 renal, in the assay on NCI-H460 lung, in the assay with NCI-H23 lung, in the assay on SW-620 colon and with A498 renal was greater than 100 µM in each case. The TGI with OVCAR-8 ovarian and in the assay on SNB-19 CNS was greater than 100 µM in each case.
Turning to `O=C(/C=C/c1ccc(O)c(O)c1)OC1C[C@@](O)(C(=O)O)C[C@@H](O)[C@H]1OC(=O)/C=C/c1ccc(O)c(O)c1` (some centres not stated), the TGI in the assay with HL-60(TB) leukemia, in the assay with EKVX NSCLC, in the assay with UACC-62 melanoma, in the assay on A549 NSCLC, in the assay with K-562 leukemia and in the assay with HOP-92 NSCLC was greater than 100 µM each time. In addition, the TGI in the assay on TK-10 renal, in the assay on RXF 393 renal, in the assay on HOP-62 NSCLC, with NCI-H460 lung, with NCI-H23 lung and in the assay on OVCAR-5 ovarian was greater than 100 µM throughout. The TGI in the assay with SW-620 colon, with A498 renal and in the assay with OVCAR-8 ovarian was greater than 100 µM each time.
On to `O=c1cc(-c2ccccc2)oc2cc(OCC(O)COc3ccc4c(=O)cc(-c5ccccc5)oc4c3)ccc12`, for which the TGI with HL-60(TB) leukemia is greater than 100 µM; in the assay with EKVX NSCLC, greater than 100 µM; in the assay on UACC-62 melanoma, greater than 100 µM; in the assay on A549 NSCLC, greater than 100 µM; in the assay with K-562 leukemia, greater than 100 µM; in the assay on HOP-92 NSCLC it was 95.5 µM. Moreover, the TGI in the assay with TK-10 renal is greater than 100 µM; in the assay on HOP-62 NSCLC it was 24.6 µM; in the assay with NCI-H460 lung it was greater than 100 µM; in the assay with NCI-H23 lung, greater than 100 µM; in the assay on OVCAR-5 ovarian, greater than 100 µM; in the assay with SW-620 colon, greater than 100 µM. The TGI in the assay with A498 renal is greater than 100 µM; with OVCAR-8 ovarian it was greater than 100 µM; in the assay on SNB-19 CNS, 53.6 µM.
In the case of `CCOC(=O)C1(C#N)C(c2ccccc2)CC(O)(c2ccc([N+](=O)[O-])cc2)C(C(=O)c2ccc([N+](=O)[O-])cc2)C1c1ccccc1` (configuration not stated), the TGI with HL-60(TB) leukemia, with EKVX NSCLC, in the assay on UACC-62 melanoma, with A549 NSCLC, in the assay on K-562 leukemia and in the assay on TK-10 renal was greater than 100 µM in each case. In addition, the TGI was 42.6 µM with RXF 393 renal; greater than 100 µM with HOP-62 NSCLC; greater than 100 µM in the assay with NCI-H460 lung; greater than 100 µM with NCI-H23 lung; greater than 100 µM with OVCAR-5 ovarian; greater than 100 µM in the assay on SW-620 colon. Besides, the TGI in the assay on OVCAR-8 ovarian and with SNB-19 CNS was greater than 100 µM throughout.
As to `C=C1C(=O)OC2/C=C(\C)C3OC3/C=C(/C(=O)OC)C(O)C(OC(=O)C3(C)OC3C)C12` (configuration not stated), the TGI with EKVX NSCLC turned out to be 7.44 µM; with UACC-62 melanoma it was 5.19 µM; in the assay on A549 NSCLC, 32 µM; in the assay with K-562 leukemia, 14.3 µM; in the assay on HOP-92 NSCLC it was 5.68 µM; with TK-10 renal it was 9.14 µM. For the same compound, the TGI in the assay on RXF 393 renal came to 2.22 µM; with HOP-62 NSCLC it was 35.8 µM; in the assay with NCI-H460 lung it was 17.8 µM; in the assay with NCI-H23 lung, 3.5 µM; in the assay on OVCAR-5 ovarian, 30.4 µM; in the assay with SW-620 colon, 3.1 µM. For the same compound, the figures for the TGI in the assay on A498 renal and in the assay with OVCAR-8 ovarian were 19.6 µM and 5.85 µM, respectively.

These data come from PubChem BioAssay (NCI).
